Publication PMC7140427, “A Unique GSK-3β inhibitor B10 Has a Direct Effect on Aβ, Targets Tau and Metal Dyshomeostasis, and Promotes Neuronal Neurite Outgrowth” (Cells, 2020)

Target: T1, GSK-3β (Homo sapiens, UniProt P49841)
T1 construct: gene GSK3B
Experiment: caliper mobility shift kinase assay with peptide FAM-P15 and ATP
Format: biochemical

T1 sequence (P49841 whole entry): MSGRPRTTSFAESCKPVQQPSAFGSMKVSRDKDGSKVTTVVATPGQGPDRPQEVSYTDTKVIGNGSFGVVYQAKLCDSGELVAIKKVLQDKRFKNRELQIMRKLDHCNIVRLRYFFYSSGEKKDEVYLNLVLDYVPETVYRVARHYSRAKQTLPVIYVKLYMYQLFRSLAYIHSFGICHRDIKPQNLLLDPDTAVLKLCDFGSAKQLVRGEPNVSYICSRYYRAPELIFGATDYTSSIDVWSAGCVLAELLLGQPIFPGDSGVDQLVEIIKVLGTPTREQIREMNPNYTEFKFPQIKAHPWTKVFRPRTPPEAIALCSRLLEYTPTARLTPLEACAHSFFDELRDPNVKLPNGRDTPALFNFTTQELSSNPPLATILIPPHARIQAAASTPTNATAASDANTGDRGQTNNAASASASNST

IC50: 0.066 ± 0.0025 µM
Compound: Oc1cc(-c2c[nH]c3ncc(-c4ccc(CNc5ccncc5)cc4)cc23)cc2cccnc12 [B10, 6-(5-(4-((pyridin-4-ylamino)methyl)phenyl)-1H-pyrrolo[2,3-b]pyridin-3-yl)quinolin-8-ol]
